Experiments:
[1] = tested on: P. falciparum 3D7 (chloroquine-sensitive); test: In vitro P. falciparum growth inhibition; type: cell-based; details: Plasmodium falciparum; for EC50: 3D7, 72 h, read-out: EC50 Pf3D7; for inhibition at 5 µM: 3D7, read-out: inhibition of parasite growth
[2] = tested on: P. falciparum Dd2 (multidrug-resistant); test: In vitro P. falciparum growth inhibition; type: cell-based; details: Plasmodium falciparum, DD2, 72 h, read-out: EC50 PfDd2
[3] = cited from earlier work
PfCDPK1 = details: read-out: KD PfCDPK1; cited from earlier work
[4] = Cytotoxicity, MTT reduction method, HepG2; type: cell-based; details: human, HepG2 cells
[5] = Cytotoxicity, MTT reduction method, COS-7; type: cell-based; details: monkey, COS-7 cells

| SMILES | EC50 [1] [µM] | inhibition at 5 µM [1] [%] | EC50 [2] [µM] | also measured |
| --- | --- | --- | --- | --- |
| COc1ccc(-c2c(C)nn3c(NCCN4CCOCC4)cc(C)nc23)cc1OC [(6), 3-(3,4-dimethoxyphenyl)-2,5-dimethyl-N-(2-morpholin-4-ylethyl)pyrazolo[1,5-a]pyrimidin-7-amine] | 13.8 ± 3.8 | > 30 | 17.9 ± 5.3 |  |
| CS(=O)(=O)c1ccc(-c2cnc(N)c(-c3ccc(C(F)(F)F)nc3)c2)cc1 [MMV390048] |  |  |  | solubility (in words) [3]: poor solubility |
| CCN(CC)CCCC(C)Nc1ccnc2cc(Cl)ccc12 (stereo not drawn) [Chloroquine, reference compound] | 0.009 |  | 0.057 |  |
| Cc1cn(-c2cc(NC(=O)c3ccc(C)c(Nc4nccc(-c5cccnc5)n4)c3)cc(C(F)(F)F)c2)cn1 [Nilotinib] |  |  |  | Kd (PfCDPK1): 790 nM |
| O=C1Nc2ccccc2C1=Cc1ccc[nH]1 [(3), 3-(1H-pyrrol-2-ylmethylidene)-1H-indol-2-one] | 10.3 ± 1.3 | > 30 | 9.8 ± 1.1 | CC50 at 72 h [4]: 13.5 ± 7.6 µM; CC50 at 72 h [5]: 32.8 ± 10.8 µM |

— paper PMC9293725 (Computational and Structural Biotechnology Journal, 2022)
